The source of these data is US20150164910A1, “ANTIVIRAL COMPOUNDS AND METHODS OF USE” (The Regents of the University of Califonia, priority 2012, published 2015).

The subject of one assay is CVB3-H3. Briefly: Plaque reduction assay, CVB3-H3 in HeLa-RW cells. To be noted: compound added 30 min before infection, CVB3-H3 MOI 1, HeLa-RW, 6 hours; log10(titer with DMSO only/titer with inhibitor). Type of assay: cell-based, coxsackievirus B3.
Assay [1] deals with eGFP-expressing recombinant CVB3. Format: cell-based, coxsackievirus B3. To be noted: eGFP-CVB3 m.o.i=1, compound added at time of infection, 6 hr post infection; 1-(% eGFP+ cells with compound/% with DMSO only).
Throughout, for Inhibition of infected cells: test concentration or dose not given here.

Consider `CC1Oc2ccc(NC(=O)c3cc(C4CC4)nc4c3cnn4C(C)C)cc2NC1=O` (centres unmarked) [Compound 13, 6-Cyclopropyl-1-isopropyl-N-(2-methyl-3-oxo-3,4-dihydro-2H-1,4-benzoxazin-6-yl)-1H-pyrazolo [3,4-b]pyridine-4-carboxamide], for which the “Log10 reduction of virus titer” value in the assay on CVB3-H3 came out at 4.2. In addition, the “Inhibition of infected cells” value in assay [1] stood at 100%.

In the case of `CC(C)n1ncc2c(C(=O)Nc3cccc(-c4nnc5n4CCCCC5)c3)cc(C3CC3)nc21` [Compound 14, 6-Cyclopropyl-1-isopropyl-N-[3-(6,7,8,9-tetrahydro-5H-[1,2,4]triazolo [4,3-a]azepin-3-yl)phenyl]-1H-pyrazolo [3,4-b]pyridine-4-carboxamide], the “Log10 reduction of virus titer” value in the assay with CVB3-H3 came out at 3.3. In addition, in assay [1], the “Inhibition of infected cells” value worked out at 100%.

In the case of `COc1ccc(-c2csc3ncn(CC(=O)c4ccc5c(c4)OCO5)c(=O)c23)cc1OC` [Compound 54, 3-[2-(1,3-Benzodioxol-5-yl)-2-oxoethyl]-5-(3,4-dimethoxyphenyl) thieno[2,3-d]pyrimidin-4 (3H)-one], the “Log10 reduction of virus titer” value in the assay on CVB3-H3 is 3.2. Moreover, the “Inhibition of infected cells” value in assay [1] is reported as 87.6%.

For `O=C(Nc1nc(CN2CCOCC2)cs1)c1cc(-c2ccc(Cl)s2)nc2ccccc12` [Compound 34, 2-(5-Chloro-2-thienyl)-N-[4-(4-morpholinylmethyl)-1,3-thiazol-2-yl]-4-quinoline-carboxamide], the “Log10 reduction of virus titer” value in the assay with CVB3-H3 worked out at 3.5. In addition, the “Inhibition of infected cells” value in assay [1] was 94.4%.

Take `COc1ccc(CCC2CCN(Cc3cc(=O)n4ccccc4n3)CC2)cc1` [Compound 52, 2-({4-[2-(4-Methoxyphenyl)ethyl]-1-piperidinyl}methyl)-4H-pyrido[1,2-a]pyrimidin-4-one]: the “Log10 reduction of virus titer” value in the assay with CVB3-H3 is 0.0. The “Inhibition of infected cells” value in assay [1] turned out to be 57.7%.

On to `CC(C)c1cc(C(=O)Nc2cccc(N3CCCC3=O)c2)c2cnn(C(C)C)c2n1` [Compound 18, 1,6-Diisopropyl-N-[3-(2-oxo-1-pyrrolidinyl)phenyl]-1H-pyrazolo[3,4-b]pyridine-4-carboxamide], for which the “Log10 reduction of virus titer” value in the assay with CVB3-H3 turned out to be 4.0. The “Inhibition of infected cells” value in assay [1] worked out at 97.9%.

With `COc1cccc(NC(=O)c2cc(-c3cccs3)nc3c2cnn3C(C)C)c1` [Compound 8, 1-Isopropyl-N-(3-methoxyphenyl)-6-(2-thienyl)-1H-pyrazolo [3,4-b]pyridine-4-carboxamide], in the assay on CVB3-H3, the “Log10 reduction of virus titer” value is listed as 4.4. Also, in assay [1], the “Inhibition of infected cells” value is on record as 99.2%.

With `Cc1ccc(NC(=O)c2cc(C3CC3)nc3c2cnn3C(C)C)cc1S(N)(=O)=O` [Compound 11, 6-Cyclopropyl-1-isopropyl-N-(4-methyl-3-sulfamoylphenyl)-1H-pyrazolo[3,4-b]pyridine-4-carboxamide], in the assay with CVB3-H3, the “Log10 reduction of virus titer” value was found to be 4.1. In addition, in assay [1], the “Inhibition of infected cells” value was found to be 99.6%.

Regarding `CCCCNCC(=O)Nc1ccccc1N1CCCCC1` [Compound 65, N^2-Butyl-N-[2-(1-piperidinyl)phenyl] glycinamide], the “Log10 reduction of virus titer” value in the assay on CVB3-H3 is −0.4. The “Inhibition of infected cells” value in assay [1] was 36.2%.

Regarding `Cc1ccc(NC(=O)c2cc(-c3cccs3)nc3c2cnn3C(C)C)cc1S(N)(=O)=O` [Compound 9, 1-Isopropyl-N-(4-methyl-3-sulfamoylphenyl)-6-(2-thienyl)-1H-pyrazolo[3,4-b] pyridine-4-carboxamide], the “Log10 reduction of virus titer” value in the assay on CVB3-H3 is recorded as 4.5. Further, the “Inhibition of infected cells” value in assay [1] is listed as 100%.

As for `CCn1ncc2c(C(=O)Nc3ccc(C#N)cc3)cc(-c3cccs3)nc21` [Compound 20, N-(4-Cyanophenyl)-1-ethyl-6-(2-thienyl)-1H-pyrazolo [3,4-b]pyridine-4-carboxamide], the “Log10 reduction of virus titer” value with CVB3-H3 stood at 1.9. Moreover, the “Inhibition of infected cells” value in assay [1] turned out to be 99.6%.

As for `Br.COc1ccc(C(=O)Cn2c(=N)n(Cc3ccc(C)cc3)c3ccccc32)cc1` [Compound 39, 1-[2-(4-Methoxyphenyl)-2-oxoethyl]-3-(4-methylbenzyl)-1,3-dihydro-2H-benzimidazol-2-iminium bromide], the “Log10 reduction of virus titer” value in the assay with CVB3-H3 came out at 0.3. Further, the “Inhibition of infected cells” value in assay [1] came to 100%.

For the compound `Cc1nc2ccccc2c2c(NC(=O)c3cnccn3)c3ccccc3n12` [Compound 50, N-(6-Methylindolo [1,2-c]quinazolin-12-yl)-2-pyrazinecarboxamide], in the assay on CVB3-H3, the “Log10 reduction of virus titer” value was 2.5. Besides, the “Inhibition of infected cells” value in assay [1] is recorded as 69.9%.

Turning to `CC(=O)c1c(C)nc2ccc(Cl)cc2c1-c1ccccc1` [Compound 31, 1-(6-Chloro-2-methyl-4-phenyl-3-quinolinyl)ethanone], in the assay on CVB3-H3, the “Log10 reduction of virus titer” value was found to be 3.8. In addition, in assay [1], the “Inhibition of infected cells” value came out at 94.5%.

For the compound `NNC(=O)c1cc(-c2ccccc2)nc2ccccc12` [Compound 26, 2-Phenyl-4-quinoline-carbohydrazide], the “Log10 reduction of virus titer” value with CVB3-H3 is 2.5. Besides, the “Inhibition of infected cells” value in assay [1] worked out at 98.7%.

On to `Cl.OCCN1CCN(CC/C=C2/c3ccccc3Sc3ccc(Cl)cc32)CC1` [Compound 71, 2-[4-[3-(2-chlorothioxanthen-9-ylidene)propyl]piperazin-1-yl]ethanol hydrochloride, reference compound], for which the “Log10 reduction of virus titer” value in the assay on CVB3-H3 is reported as 4.2. Moreover, the “Inhibition of infected cells” value in assay [1] is given as 99.1%.

Take `O=C(c1ccc2c(c1)OCCO2)C1CCN(C(=O)c2ccc(-n3cccn3)cc2)CC1` [Compound 46, 2,3-Dihydro-1,4-benzodioxin-6-yl {1-[4-(1H-pyrazol-1-yl)benzoyl]-4-piperidinyl}methanone]: the “Log10 reduction of virus titer” value in the assay with CVB3-H3 was 1.3. Also, the “Inhibition of infected cells” value in assay [1] is reported as 82.6%.

Turning to `CC1Oc2ccc(NC(=O)c3cc(-c4cccs4)nc4ccccc34)cc2NC1=O` (centres unmarked) [Compound 30, N-(2-Methyl-3-oxo-3,4-dihydro-2H-1,4-benzoxazin-6-yl)-2-(2-thienyl)-4-quinolinecarboxamide], in the assay with CVB3-H3, the “Log10 reduction of virus titer” value was determined as 4.1. Moreover, in assay [1], the “Inhibition of infected cells” value was found to be 100%.

As for `CCOc1ccc(C(=O)N2CCC(C(=O)c3ccc4c(c3)OCCO4)CC2)cc1` [Compound 44, 2,3-Dihydro-1,4-benzodioxin-6-yl[1-(4-ethoxybenzoyl)-4-piperidinyl] methanone], the “Log10 reduction of virus titer” value with CVB3-H3 came to 0.2. Further, the “Inhibition of infected cells” value in assay [1] is listed as 84.9%.
